This passage reports relative viability results from the supplement of paper PMC10307832.

What all share (assay): relative viability (nuclei count vs DMSO), 5 days (fraction); higher = more cells survive
Compound in one experiment: CC1=C(C=CC(=C1)[N+](=O)[O-])NS(=O)(=O)C2=C(C=CC(=C2)Cl)Cl [FH535]
The method, boiled down: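 On vehicle-anchored 1536-well plates, lung cancer cell lines held overnight at 37 °C were pinned with five library-drug doses (not always all listed) spaced by √10. With no medium change over 5 days, they were then fixed, permeabilised and Hoechst-stained in one step and imaged at 4×. MetaXpress counted nuclei, and viability is the median across plates of treated-well over vehicle-well nuclei. Acceptance needed control CV below 25% and at least one doubling.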

Compound in the experiment “FH535 + Crizotinib”: CC1=C(C=CC(=C1)[N+](=O)[O-])NS(=O)(=O)C2=C(C=CC(=C2)Cl)Cl [FH535] + C[C@@H](Oc1cc(-c2cnn(C3CCNCC3)c2)cnc1N)c1c(Cl)ccc(F)c1Cl [Crizotinib] (partner 1 µM)
The method, boiled down: (§1)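 Lung cancer cell lines, seeded in 1536-well plates, were treated the following day by pin tool with a single drug or with five library-drug doses (not always all listed) in √10 steps on top of a fixed anchor-drug dose. Cells were fixed and nuclei stained in one step after 5 days, and nuclei were counted. Relative viability is the nuclei count for treated wells divided by that for vehicle wells, reported as medians of duplicate plates.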

Compound in the experiment “FH535 + Alpelisib”: CC1=C(C=CC(=C1)[N+](=O)[O-])NS(=O)(=O)C2=C(C=CC(=C2)Cl)Cl [FH535] + Cc1nc(NC(=O)N2CCC[C@H]2C(N)=O)sc1-c1ccnc(C(C)(C)C(F)(F)F)c1 [Alpelisib] (partner 2 µM)
In short, it runs like this: as §1

Compound in the experiment “FH535 + Dasatinib”: CC1=C(C=CC(=C1)[N+](=O)[O-])NS(=O)(=O)C2=C(C=CC(=C2)Cl)Cl [FH535] + Cc1nc(Nc2ncc(C(=O)Nc3c(C)cccc3Cl)s2)cc(N2CCN(CCO)CC2)n1 [Dasatinib] (partner 0.075 µM)
In short, it runs like this:
as §1

Compound in the experiment “FH535 + Olaparib”: CC1=C(C=CC(=C1)[N+](=O)[O-])NS(=O)(=O)C2=C(C=CC(=C2)Cl)Cl [FH535] + O=C(c1cc(Cc2n[nH]c(=O)c3ccccc23)ccc1F)N1CCN(C(=O)C2CC2)CC1 [Olaparib] (partner 8 µM)
In short, it runs like this: as §1

Turning to RERF-LC-KJ, the relative viability in the experiment with FH535 (0.04 µM) was determined as 0.947; with FH535 (0.1265 µM), 0.998; in the experiment with FH535 (0.4 µM), 0.962; in the experiment with FH535 (1.265 µM), 0.808; with FH535 + Crizotinib (first compound 0.04 µM) it was 0.856; with FH535 + Crizotinib (first compound 0.1265 µM), 0.826. Moreover, the relative viability in the experiment with FH535 + Crizotinib (first compound 0.4 µM) came to 0.86; in the experiment with FH535 + Crizotinib (first compound 1.265 µM), 0.671; in the experiment with FH535 + Alpelisib (first compound 0.04 µM), 0.739; in the experiment with FH535 + Alpelisib (first compound 0.1265 µM), 0.822; in the experiment with FH535 + Alpelisib (first compound 0.4 µM) it was 0.921; with FH535 + Alpelisib (first compound 1.265 µM) it was 0.751. For the same cell line, the relative viability in the experiment with FH535 + Dasatinib (first compound 0.04 µM) is 0.845; with FH535 + Dasatinib (first compound 0.1265 µM) it was 0.805; in the experiment with FH535 + Dasatinib (first compound 0.4 µM), 0.747; with FH535 + Dasatinib (first compound 1.265 µM), 0.502; with FH535 + Olaparib (first compound 0.04 µM) it was 0.904; with FH535 + Olaparib (first compound 0.1265 µM), 0.891. The values for the relative viability with FH535 + Olaparib (first compound 0.4 µM) and in the experiment with FH535 + Olaparib (first compound 1.265 µM) were 0.856 and 0.516, respectively.

SK-LU-1: the relative viability was determined as 1.03 with FH535 (0.04 µM); 1.02 with FH535 (0.1265 µM); 0.945 with FH535 (0.4 µM); 0.758 with FH535 (1.265 µM); 1.15 in the experiment with FH535 + Crizotinib (first compound 0.04 µM); 0.793 with FH535 + Crizotinib (first compound 0.1265 µM). Besides, the relative viability with FH535 + Crizotinib (first compound 0.4 µM) was found to be 0.849; with FH535 + Crizotinib (first compound 1.265 µM) it was 0.703; in the experiment with FH535 + Alpelisib (first compound 0.04 µM), 0.913; with FH535 + Alpelisib (first compound 0.1265 µM) it was 1.1; in the experiment with FH535 + Alpelisib (first compound 0.4 µM), 0.949; in the experiment with FH535 + Alpelisib (first compound 1.265 µM), 0.616. The relative viability was 0.191 with FH535 + Dasatinib (first compound 0.04 µM); 0.192 with FH535 + Dasatinib (first compound 0.1265 µM); 0.182 in the experiment with FH535 + Dasatinib (first compound 0.4 µM); 0.194 with FH535 + Dasatinib (first compound 1.265 µM); 0.48 with FH535 + Olaparib (first compound 0.04 µM); 0.439 with FH535 + Olaparib (first compound 0.1265 µM). Also, the relative viability amounted to 0.456 in the experiment with FH535 + Olaparib (first compound 0.4 µM) and 0.407 with FH535 + Olaparib (first compound 1.265 µM).

With SK-MES-1, the relative viability turned out to be 0.986 with FH535 (0.04 µM); 1.01 with FH535 (0.1265 µM); 0.963 with FH535 (0.4 µM); 0.776 with FH535 (1.265 µM); 0.975 with FH535 + Crizotinib (first compound 0.04 µM); 1.01 with FH535 + Crizotinib (first compound 0.1265 µM). Besides, the relative viability with FH535 + Crizotinib (first compound 0.4 µM) was found to be 0.973; in the experiment with FH535 + Crizotinib (first compound 1.265 µM), 0.855; in the experiment with FH535 + Alpelisib (first compound 0.04 µM), 0.865; in the experiment with FH535 + Alpelisib (first compound 0.1265 µM), 0.941; with FH535 + Alpelisib (first compound 0.4 µM) it was 0.855; with FH535 + Alpelisib (first compound 1.265 µM), 0.881. Also, the relative viability was found to be 0.407 in the experiment with FH535 + Dasatinib (first compound 0.04 µM); 0.47 with FH535 + Dasatinib (first compound 0.1265 µM); 0.343 in the experiment with FH535 + Dasatinib (first compound 0.4 µM); 0.292 in the experiment with FH535 + Dasatinib (first compound 1.265 µM); 0.729 with FH535 + Olaparib (first compound 0.04 µM); 0.756 with FH535 + Olaparib (first compound 0.1265 µM). The relative viability in the experiment with FH535 + Olaparib (first compound 0.4 µM) was determined as 0.6; with FH535 + Olaparib (first compound 1.265 µM), 0.497.

For the cell line SW 1573, the relative viability with FH535 (0.04 µM) worked out at 0.908; with FH535 (0.1265 µM) it was 1.01; in the experiment with FH535 (0.4 µM), 0.899; in the experiment with FH535 (1.265 µM), 0.836; with FH535 + Crizotinib (first compound 0.04 µM) it was 0.64; in the experiment with FH535 + Crizotinib (first compound 0.1265 µM) it was 0.751. Besides, the relative viability with FH535 + Crizotinib (first compound 0.4 µM) was 0.865; with FH535 + Crizotinib (first compound 1.265 µM), 0.683; with FH535 + Alpelisib (first compound 0.04 µM), 0.726; with FH535 + Alpelisib (first compound 0.1265 µM), 0.693; in the experiment with FH535 + Alpelisib (first compound 0.4 µM) it was 0.623; in the experiment with FH535 + Alpelisib (first compound 1.265 µM), 0.689. For the same cell line, the relative viability is 0.42 with FH535 + Dasatinib (first compound 0.04 µM); 0.414 with FH535 + Dasatinib (first compound 0.1265 µM); 0.344 in the experiment with FH535 + Dasatinib (first compound 0.4 µM); 0.454 with FH535 + Dasatinib (first compound 1.265 µM); 0.399 in the experiment with FH535 + Olaparib (first compound 0.04 µM); 0.497 with FH535 + Olaparib (first compound 0.1265 µM). Also, the relative viability in the experiment with FH535 + Olaparib (first compound 0.4 µM) turned out to be 0.473; with FH535 + Olaparib (first compound 1.265 µM) it was 0.34.

UMC-11: the relative viability worked out at 0.94 with FH535 (0.04 µM); 0.877 with FH535 (0.1265 µM); 0.9 in the experiment with FH535 (0.4 µM); 0.911 with FH535 (1.265 µM); 0.639 with FH535 + Crizotinib (first compound 0.04 µM); 0.583 in the experiment with FH535 + Crizotinib (first compound 0.1265 µM). The relative viability amounted to 0.582 with FH535 + Crizotinib (first compound 0.4 µM); 0.626 with FH535 + Crizotinib (first compound 1.265 µM); 0.939 with FH535 + Alpelisib (first compound 0.04 µM); 1.13 with FH535 + Alpelisib (first compound 0.1265 µM); 0.96 in the experiment with FH535 + Alpelisib (first compound 0.4 µM); 0.857 in the experiment with FH535 + Alpelisib (first compound 1.265 µM). Also, the relative viability came out at 0.446 with FH535 + Dasatinib (first compound 0.04 µM); 0.454 in the experiment with FH535 + Dasatinib (first compound 0.1265 µM); 0.416 with FH535 + Dasatinib (first compound 0.4 µM); 0.422 with FH535 + Dasatinib (first compound 1.265 µM); 0.288 with FH535 + Olaparib (first compound 0.04 µM); 0.335 with FH535 + Olaparib (first compound 0.1265 µM). For the same cell line, the relative viability with FH535 + Olaparib (first compound 0.4 µM) is 0.367; with FH535 + Olaparib (first compound 1.265 µM) it was 0.343.
